Columns and labels:
Details in all cases: incubation time: 72 h
HCC1143 [1] = experiment: normalised response (% of control), CellTiter-Glo; higher = more viable cells (100 = DMSO, 0 = benzethonium chloride kill control)
Procedure: (§1)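 DSRT, 72 h incubation, CellTox Green / CellTiter-Glo readout. Signal is normalised to DMSO and benzethonium chloride controls. Value is the normalised response at dose 3.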

CAL-120 [2] = experiment: as above
Procedure: as §1

Hs578T [3] = experiment: as above
Procedure: as §1

MCF-10A [4] = experiment: as above
Procedure: as §1

HCC1937 [5] = experiment: as above
Procedure: as §1

MDA-MB-468 [6] = experiment: as above
Procedure: as §1

MDA-MB-436 [7] = experiment: as above
Procedure: as §1

BT-549 [8] = experiment: as above
Procedure: as §1

HDQ-P1 [9] = experiment: as above
Procedure: as §1

MFM-223 [10] = experiment: as above
Procedure: as §1

SK-BR-3 = experiment: as above
Procedure: as §1

HCC1599 [11] = experiment: as above
Procedure: as §1

DU-4475 [12] = experiment: as above
Procedure: as §1

BT-474 [13] = experiment: as above
Procedure: as §1

CAL-85-1 [14] = experiment: as above
Procedure: as §1

CAL-148 [15] = experiment: as above
Procedure: as §1

CAL-51 [16] = experiment: as above
Procedure: as §1

MDA-MB-453 [17] = experiment: as above
Procedure: as §1

MDA-MB-231 [18] = experiment: as above
Procedure: as §1

HCC1143 [19] = experiment: normalised response (% of control), CellTox Green; higher = less cell death (100 = DMSO, 0 = benzethonium chloride kill control)
Method in brief: (§2)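 Every value is a normalised signal taken at one concentration of a dilution series. Compound was placed in 384-well plates at 5 concentrations in 10-fold steps over a compound-specific 10,000-fold range, and 20 µl of breast cancer cell suspension was seeded onto it. After 72 h, CellTox Green fluorescence (485/520 nm) was measured first and CellTiter-Glo luminescence second, following 10 min at room temperature. Each plate was scaled to 0.1 % DMSO (100) and a positive kill control (0).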

CAL-120 [20] = experiment: as above
Method in brief: as §2

Hs578T [21] = experiment: as above
Method in brief: as §2

MCF-10A [22] = experiment: as above
Method in brief: as §2

HCC1937 [23] = experiment: as above
Method in brief: as §2

MDA-MB-468 [24] = experiment: as above
Method in brief: as §2

BT-549 [25] = experiment: as above
Method in brief: as §2

HDQ-P1 [26] = experiment: as above
Method in brief: as §2

MFM-223 [27] = experiment: as above
Method in brief: as §2

HCC1599 [28] = experiment: as above
Method in brief: as §2

DU-4475 [29] = experiment: as above
Method in brief: as §2

BT-474 [30] = experiment: as above
Method in brief: as §2

CAL-85-1 [31] = experiment: as above
Method in brief: as §2

CAL-148 [32] = experiment: as above
Method in brief: as §2

CAL-51 [33] = experiment: as above
Method in brief: as §2

MDA-MB-453 [34] = experiment: as above
Method in brief: as §2

MDA-MB-231 [35] = experiment: as above
Method in brief: as §2

MDA-MB-436 [36] = experiment: as above
Method in brief: as §2

| SMILES | normalised response (HCC1143 [1]) | normalised response (CAL-120 [2]) | normalised response (Hs578T [3]) | normalised response (MCF-10A [4]) | normalised response (HCC1937 [5]) | normalised response (MDA-MB-468 [6]) | normalised response (MDA-MB-436 [7]) | normalised response (BT-549 [8]) | normalised response (HDQ-P1 [9]) | normalised response (MFM-223 [10]) | normalised response (SK-BR-3) | normalised response (HCC1599 [11]) | normalised response (DU-4475 [12]) | normalised response (BT-474 [13]) | normalised response (CAL-85-1 [14]) | normalised response (CAL-148 [15]) | normalised response (CAL-51 [16]) | normalised response (MDA-MB-453 [17]) | normalised response (MDA-MB-231 [18]) | normalised response (HCC1143 [19]) | normalised response (CAL-120 [20]) | normalised response (Hs578T [21]) | normalised response (MCF-10A [22]) | normalised response (HCC1937 [23]) | normalised response (MDA-MB-468 [24]) | normalised response (BT-549 [25]) | normalised response (HDQ-P1 [26]) | normalised response (MFM-223 [27]) | normalised response (HCC1599 [28]) | normalised response (DU-4475 [29]) | normalised response (BT-474 [30]) | normalised response (CAL-85-1 [31]) | normalised response (CAL-148 [32]) | normalised response (CAL-51 [33]) | normalised response (MDA-MB-453 [34]) | normalised response (MDA-MB-231 [35]) | normalised response (MDA-MB-436 [36]) |
| --- | --- | --- | --- | --- | --- | --- | --- | --- | --- | --- | --- | --- | --- | --- | --- | --- | --- | --- | --- | --- | --- | --- | --- | --- | --- | --- | --- | --- | --- | --- | --- | --- | --- | --- | --- | --- | --- |
| O=C(NC[C@H](O)CO)c1ccncc1Nc1ccc(I)cc1F [Pimasertib] (100 nM) | 94.7% | 92.4% | 88.9% | 41.7% | 89.2% | 95.3% | 97.5% | 103% | 67.1% | 103% | 94% | 85.2% | 4.09% | 81.9% | 82.4% | 90.4% | 73.7% | 112% | 83.5% | 99.8% | 96.5% | 113% | 98.9% | 101% | 108% | 59.3% | 104% | 107% | 118% | 69.4% | 98% | 91.4% | 107% | 107% | 99.4% | 59.1% |  |
| Cc1c(CN2CCN(C(=O)[C@H](C)O)CC2)sc2c(N3CCOCC3)nc(-c3cnc(N)nc3)nc12 [GDC-0980] (100 nM) | 92.9% | 96.2% | 86.2% | 90.8% | 89.3% | 95.9% | 92.5% | 90.1% | 84% | 93.6% | 72.5% | 98.3% | 98% | 93.5% | 99.9% | 102% | 86.3% | 75.8% | 97.1% | 113% | 102% |  | 83.3% | 114% | 124% | 106% | 110% | 105% | 106% | 99.9% | 101% | 106% |  | 112% | 98% | 81.2% | 108% |

— the supplement of paper PMC4862054
